# Experimental data reported in US7625939B2, “Cyclopropyl-fused pyrrolidine derivatives as dipeptidyl peptidase IV inhibitors” (Probiodrug AG, priority 2005, dated 2009).
# Experiments:
# Type in all cases: biochemical
# Conditions in all cases: Gly-Pro-pNA 0.4 mM, HEPES pH 7.6, 30° C.
# purified porcine DP IV = molecular target: T1, purified porcine DP IV (Sus scrofa, UniProt P22411); test: IC50 of DP IV inhibition, porcine kidney enzyme (Gly-Pro-pNA substrate)
# T1 construct: purified porcine DP IV; from tissue; host or cells: porcine kidney
# T1 sequence (P22411 whole entry): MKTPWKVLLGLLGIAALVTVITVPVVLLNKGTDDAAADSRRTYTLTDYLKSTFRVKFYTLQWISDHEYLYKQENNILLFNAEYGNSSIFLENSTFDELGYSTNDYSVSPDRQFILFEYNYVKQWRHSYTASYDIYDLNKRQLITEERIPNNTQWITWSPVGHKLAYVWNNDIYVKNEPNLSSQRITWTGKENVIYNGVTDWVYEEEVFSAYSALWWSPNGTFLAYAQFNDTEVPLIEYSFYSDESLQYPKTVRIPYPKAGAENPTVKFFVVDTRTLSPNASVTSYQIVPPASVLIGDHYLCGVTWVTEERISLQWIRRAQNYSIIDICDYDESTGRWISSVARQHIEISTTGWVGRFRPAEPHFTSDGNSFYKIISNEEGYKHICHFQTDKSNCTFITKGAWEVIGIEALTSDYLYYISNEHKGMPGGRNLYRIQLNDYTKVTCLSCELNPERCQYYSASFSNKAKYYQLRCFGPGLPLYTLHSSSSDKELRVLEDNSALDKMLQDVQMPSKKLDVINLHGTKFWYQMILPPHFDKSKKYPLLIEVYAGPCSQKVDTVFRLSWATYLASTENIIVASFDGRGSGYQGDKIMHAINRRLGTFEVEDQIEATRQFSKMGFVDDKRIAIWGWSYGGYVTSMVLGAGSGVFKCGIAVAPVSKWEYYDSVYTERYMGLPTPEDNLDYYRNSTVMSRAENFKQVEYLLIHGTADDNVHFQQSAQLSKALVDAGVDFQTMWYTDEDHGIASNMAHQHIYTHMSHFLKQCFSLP
# Procedure: (§1) 100 μl inhibitor stock solution were mixed with 100 μl buffer (HEPES pH 7.6) and 50 μl substrate (Gly-Pro-pNA, final concentration 0.4 mM) and preincubated at 30° C. Reaction was started by addition of 20 μl enzyme solution (either purified porcine DP IV, human recombinant DP IV, human recombinant DP II or human recombinant DP9). Formation of the product pNA was measured at 405 nm over 10 min using the HTS 7000Plus plate reader (Perkin Elmer) and slopes were calculated. The final inhibitor concentrations ranged between 1 mM and 30 nM.
# (§2) For calculation of IC50-values GraFit 4.0.13 (Erithacus Software) was used.
# human recombinant DP IV = human recombinant DP IV (Homo sapiens, UniProt P27487); test: IC50 of DP IV inhibition, human recombinant enzyme (Gly-Pro-pNA substrate)
# Sequence of human recombinant DP IV (P27487 whole entry): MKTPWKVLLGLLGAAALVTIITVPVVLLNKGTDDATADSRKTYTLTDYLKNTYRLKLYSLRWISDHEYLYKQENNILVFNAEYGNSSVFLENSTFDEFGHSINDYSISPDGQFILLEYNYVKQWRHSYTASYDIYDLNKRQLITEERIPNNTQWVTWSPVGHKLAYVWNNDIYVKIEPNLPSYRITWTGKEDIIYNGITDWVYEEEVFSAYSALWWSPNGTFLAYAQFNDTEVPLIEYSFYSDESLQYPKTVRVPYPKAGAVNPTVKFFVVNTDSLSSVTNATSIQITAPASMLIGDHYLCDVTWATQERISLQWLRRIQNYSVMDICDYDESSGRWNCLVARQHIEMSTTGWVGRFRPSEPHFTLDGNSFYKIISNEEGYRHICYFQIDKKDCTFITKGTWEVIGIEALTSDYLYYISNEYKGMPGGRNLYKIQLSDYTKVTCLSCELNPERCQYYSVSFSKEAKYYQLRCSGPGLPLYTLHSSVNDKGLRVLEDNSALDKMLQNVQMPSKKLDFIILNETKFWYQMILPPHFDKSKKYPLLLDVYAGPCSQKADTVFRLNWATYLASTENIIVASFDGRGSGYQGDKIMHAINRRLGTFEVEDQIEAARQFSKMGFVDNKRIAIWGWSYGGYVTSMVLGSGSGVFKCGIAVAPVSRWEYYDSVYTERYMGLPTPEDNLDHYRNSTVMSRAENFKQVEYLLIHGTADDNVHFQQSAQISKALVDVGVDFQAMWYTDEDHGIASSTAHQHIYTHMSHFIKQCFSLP
# Procedure: as §1, §2
# human recombinant DP II = human recombinant DP II (Homo sapiens, UniProt Q9UHL4); test: IC50 of DP II inhibition, human recombinant enzyme (Gly-Pro-pNA substrate)
# Procedure: as §1, §2
# human recombinant DP9 = human recombinant DP9 (Homo sapiens, UniProt Q86TI2); test: IC50 of DP9 inhibition, human recombinant enzyme (Gly-Pro-pNA substrate)
# Sequence of human recombinant DP9 (Q86TI2 whole entry): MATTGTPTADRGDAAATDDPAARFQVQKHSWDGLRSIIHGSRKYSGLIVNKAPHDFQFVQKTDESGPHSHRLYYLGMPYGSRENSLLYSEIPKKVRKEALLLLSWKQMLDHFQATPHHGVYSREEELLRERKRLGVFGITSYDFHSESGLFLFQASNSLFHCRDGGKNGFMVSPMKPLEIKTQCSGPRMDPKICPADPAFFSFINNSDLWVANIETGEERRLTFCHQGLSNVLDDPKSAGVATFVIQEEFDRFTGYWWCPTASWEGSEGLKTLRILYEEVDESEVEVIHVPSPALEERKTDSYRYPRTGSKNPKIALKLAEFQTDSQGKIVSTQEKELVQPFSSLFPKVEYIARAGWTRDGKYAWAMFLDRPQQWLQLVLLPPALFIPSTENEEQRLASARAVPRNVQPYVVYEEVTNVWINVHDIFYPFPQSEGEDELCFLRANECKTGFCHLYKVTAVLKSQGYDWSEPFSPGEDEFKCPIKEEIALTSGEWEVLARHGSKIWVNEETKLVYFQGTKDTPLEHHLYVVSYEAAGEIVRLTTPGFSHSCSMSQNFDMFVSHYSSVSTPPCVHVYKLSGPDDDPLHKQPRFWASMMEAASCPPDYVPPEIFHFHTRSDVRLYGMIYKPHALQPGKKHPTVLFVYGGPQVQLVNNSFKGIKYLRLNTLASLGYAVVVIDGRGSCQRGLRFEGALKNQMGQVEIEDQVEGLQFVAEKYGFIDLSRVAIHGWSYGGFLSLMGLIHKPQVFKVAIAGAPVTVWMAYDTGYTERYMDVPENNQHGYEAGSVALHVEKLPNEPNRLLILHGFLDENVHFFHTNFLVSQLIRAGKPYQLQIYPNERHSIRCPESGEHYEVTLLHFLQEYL
# Procedure: as §1, §2
Compound,IC50 (purified porcine DP IV) [nM],IC50 (human recombinant DP IV) [nM],IC50 (human recombinant DP II) [µM],IC50 (human recombinant DP9) [nM]
CC(C)[C@H](N)C(=O)N1CC2CC2C1B(O)O (stereo partly drawn) [Example 1],3.53,31.6,3.82,15.9
CC(C)(C)[C@H](N)C(=O)N1CC2CC2C1B(O)O (stereo partly drawn) [Example 2],10.2,75,21.1,18.4
CC[C@H](C)[C@H](N)C(=O)N1CC2CC2C1B(O)O (stereo partly drawn) [Example 3],9.46,45.1,1.47,10.8
